Reference: patent publication US20050009103A1, “Methods of precise molecular-level determination of ligand-receptor interactions and designing selective drug compounds based on said interactions” (priority 2003, published 2005)
Where two headings read alike, the source gives them in different places.

How the values were obtained:
[1] = test system: Mouse muscle embryonic nAChR, 4,5,6,7-F4-Trp at α149, Leu9′Ser mutation in M2 of the β subunit; assay: Two-electrode voltage clamp of Xenopus oocytes expressing nAChR, F4-Trp at α149; type: cell-based
Protocol: (§1) Unnatural amino acids were incorporated into the nAChR using in vivo nonsense suppression methods, and mutant receptors were evaluated electrophysiologically (Dougherty, D. A. (2000) Curr. Opin. Chem. Biol. 4:645-652).
(§2) In studies of weak agonists and/or receptors with diminished binding capability, it is necessary to introduce another mutation that independently decreases EC50. This was accomplished via a Leu-to-Ser mutation in the β subunit at a site known as 9′ in the M2 transmembrane region of the receptor. This M2-β9′ site is almost 50 Å from the binding site, and previous work has shown that a Leu9′Ser mutation lowers the EC50 by a factor of roughly 10 without altering trends in EC50 values (Beene, D. L., et al. (2002) Biochem. 41:10262-9; and Kearney, P. C., et al. (1996) Mil. Pharmacol. 50:1401-1412). […] It is important to note that the EC50 value is not a binding constant, but a composite of equilibria for both binding and gating.
Stage VI oocytes of Xenopus laevis were employed. Oocyte recordings were made 24 to 48 h post injection in two-electrode voltage clamp mode using the OpusXpress™ 6000A (Axon Instruments, Union City, Calif.). Oocytes were superfused with Ca^2+-free ND96 solution at flow rates of 1 ml/min, 4 ml/min during drug application and 3 ml/min during wash. Holding potentials were −60 mV. Data were sampled at 125 Hz and filtered at 50 Hz. […]

[2] = test system: Mouse muscle embryonic nAChR, Tah α150 (ester carbonyl of Trp α149), Leu9′Ser mutation in M2 of the β subunit; type: cell-based
Protocol: as §1, §2
(§3) To evaluate this possibility, the backbone amide at this position was converted to an ester by replacing Thr α150 with the analog α-hydroxy threonine (Tah) using the nonsense suppression methodology (FIG. 9a). Converting an amide carbonyl to an ester carbonyl weakens the hydrogen bonding ability of the oxygen, an effect that has been estimated to be worth ˜[…] (Koh, J. T., et al. (1997) Biochem. 36:11314-22).
(§4) Stage VI oocytes of Xenopus laevis were employed. Oocyte recordings were made 24 to 48 h post injection in two-electrode voltage clamp mode using the OpusXpress™ 6000A (Axon Instruments, Union City, Calif.). Oocytes were superfused with Ca^2+-free ND96 solution at flow rates of 1 ml/min, 4 ml/min during drug application and 3 ml/min during wash. Holding potentials were −60 mV. Data were sampled at 125 Hz and filtered at 50 Hz. Drug applications were 15 s in duration. […] All drugs were prepared in sterile ddi water for dilution into calcium-free ND96. Dose-response data were obtained for a minimum of 10 concentrations of agonists and for a minimum of 7 cells. Dose-response relations were fitted to the Hill equation to determine EC50 and Hill coefficient. EC50 for individual oocytes were averaged to obtain the reported values.
(§5) Synthetic amino acids and α-hydroxy acids were conjugated to the dinucleotide dCA and ligated to truncated 74 nt tRNA as previously described in England, P. M., et al. (1999) supra; and Nowak, M. W., et al. (1998) Methods Enzymol. 293:504-529. Deprotection of amino acyl tRNA was carried out by photolysis immediately prior to co-injection with mRNA, as described in Nowak M. W., et al. (1998) supra; and Li, L. T., et al. (2001) Chem. Biol. 8:47-58. Typically, 25 ng of tRNA were injected per oocyte along with mRNA in a total volume of 50 nl/cell. mRNA was prepared by in vitro runoff transcription using the Ambion (Austin, Tex.) mMessage mMachine kit. Mutation to the amber stop codon at the site of interest was accomplished by standard means and was verified by sequencing through both strands. For nAChR suppression, a total of 4.0 ng of mRNA was injected in the subunit ratio of 10:1:1:1 α:β:γ:δ. In all cases, the β subunit contained a Leu9′Ser mutation, as discussed above. Mouse muscle embryonic nAChR in the pAMV vector was used. In addition, the α subunits contain an HA epitope in the M3-M4 cytoplasmic loop for biochemical studies. […] As a negative control for suppression, truncated 74 nt or truncated tRNA ligated to dCA was co-injected with mRNA in the same manner as fully charged tRNA. […] The positive control for suppression involved wild-type recovery by co-injection with 74 nt tRNA ligated to dCA-Thr or dCA-Trp.

[3] = biological target: Mouse muscle embryonic nAChR, Thr α150, Leu9′Ser mutation in M2 of the β subunit (Mus musculus, UniProt P02716+P04756+P04760+P09690, L285S); assay: cell-based
Sequence of Mouse muscle embryonic nAChR, Thr α150, Leu9′Ser mutation in M2 of the β subunit (P04756 21-457): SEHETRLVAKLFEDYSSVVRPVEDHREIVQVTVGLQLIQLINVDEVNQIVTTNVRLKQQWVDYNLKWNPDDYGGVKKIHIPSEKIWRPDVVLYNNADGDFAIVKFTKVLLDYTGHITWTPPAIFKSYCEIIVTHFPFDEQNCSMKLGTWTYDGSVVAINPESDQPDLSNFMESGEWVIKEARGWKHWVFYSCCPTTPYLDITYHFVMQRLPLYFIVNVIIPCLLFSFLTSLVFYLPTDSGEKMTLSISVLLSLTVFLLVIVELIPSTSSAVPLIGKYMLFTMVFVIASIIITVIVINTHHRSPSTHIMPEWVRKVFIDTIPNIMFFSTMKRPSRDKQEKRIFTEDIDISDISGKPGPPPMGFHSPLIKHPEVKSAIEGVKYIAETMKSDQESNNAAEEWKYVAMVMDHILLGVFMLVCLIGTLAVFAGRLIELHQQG
Sequence of Mouse muscle embryonic nAChR, Thr α150, Leu9′Ser mutation in M2 of the β subunit (P09690 24-501 L285S): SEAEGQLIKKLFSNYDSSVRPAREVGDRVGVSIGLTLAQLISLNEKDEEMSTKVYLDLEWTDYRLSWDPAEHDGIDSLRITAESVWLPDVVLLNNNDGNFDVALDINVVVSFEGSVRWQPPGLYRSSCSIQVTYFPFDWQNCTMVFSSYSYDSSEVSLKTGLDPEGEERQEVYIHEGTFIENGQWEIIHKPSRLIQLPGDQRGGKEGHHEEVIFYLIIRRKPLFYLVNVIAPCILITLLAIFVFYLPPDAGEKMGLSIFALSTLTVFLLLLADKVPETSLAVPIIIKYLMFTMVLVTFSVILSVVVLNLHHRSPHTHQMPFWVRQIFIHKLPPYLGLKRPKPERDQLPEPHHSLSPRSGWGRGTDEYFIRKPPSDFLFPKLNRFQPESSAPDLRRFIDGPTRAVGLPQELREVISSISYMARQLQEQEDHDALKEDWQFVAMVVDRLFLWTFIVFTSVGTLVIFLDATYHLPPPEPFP
Sequence of Mouse muscle embryonic nAChR, Thr α150, Leu9′Ser mutation in M2 of the β subunit (P04760 23-519): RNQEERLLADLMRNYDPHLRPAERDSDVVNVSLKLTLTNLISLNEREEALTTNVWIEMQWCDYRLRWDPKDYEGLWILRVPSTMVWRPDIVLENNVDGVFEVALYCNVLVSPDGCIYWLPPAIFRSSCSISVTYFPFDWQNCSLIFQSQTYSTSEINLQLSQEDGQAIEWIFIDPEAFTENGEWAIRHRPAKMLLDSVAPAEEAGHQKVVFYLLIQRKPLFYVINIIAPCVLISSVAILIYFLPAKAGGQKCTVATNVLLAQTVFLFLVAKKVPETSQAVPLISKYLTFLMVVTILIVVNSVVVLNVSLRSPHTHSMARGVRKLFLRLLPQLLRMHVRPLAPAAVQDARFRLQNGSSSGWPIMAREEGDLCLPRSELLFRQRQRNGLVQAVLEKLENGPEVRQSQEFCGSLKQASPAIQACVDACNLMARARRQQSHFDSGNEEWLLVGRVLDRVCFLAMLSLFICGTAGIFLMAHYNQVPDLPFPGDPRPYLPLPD
Sequence of Mouse muscle embryonic nAChR, Thr α150, Leu9′Ser mutation in M2 of the β subunit (P02716 25-520): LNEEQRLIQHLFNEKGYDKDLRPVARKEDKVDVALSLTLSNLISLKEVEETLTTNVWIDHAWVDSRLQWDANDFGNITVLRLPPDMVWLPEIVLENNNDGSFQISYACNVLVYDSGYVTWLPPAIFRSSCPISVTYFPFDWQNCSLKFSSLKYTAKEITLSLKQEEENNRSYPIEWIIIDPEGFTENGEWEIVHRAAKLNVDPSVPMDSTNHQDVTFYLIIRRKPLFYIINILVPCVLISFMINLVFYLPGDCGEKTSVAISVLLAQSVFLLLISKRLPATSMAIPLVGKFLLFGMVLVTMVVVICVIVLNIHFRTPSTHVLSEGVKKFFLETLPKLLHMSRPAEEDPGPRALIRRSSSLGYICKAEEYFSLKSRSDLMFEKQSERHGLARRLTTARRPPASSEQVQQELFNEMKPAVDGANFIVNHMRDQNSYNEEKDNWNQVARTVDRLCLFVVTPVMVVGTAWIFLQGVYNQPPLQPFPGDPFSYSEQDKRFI
Protocol: as §1, §2
as §3, with “36:11314-22). […]” for “36:11314-22).”

[4] = biological target: T1, Mouse muscle embryonic nAChR, Tah α150 (ester carbonyl of Trp α149), Leu9′Ser mutation in M2 of the β subunit (Mus musculus, UniProt P02716+P04756+P04760); type: cell-based; conditions: read-out: EC50, Tah at α150
T1 construct: other: ± standard error of the mean; backbone ester; β Leu9′Ser; Mouse muscle embryonic nAChR in the pAMV vector was used
T1 sequence (P02716 25-520 limits assumed, change not shown): as the sequence (P02716 25-520) above
T1 sequence (P04756 21-457 limits assumed, change not shown): as the sequence (P04756 21-457) above
T1 sequence (P04760 23-519 limits assumed, change not shown): as the sequence (P04760 23-519) above
Protocol: as §1, §2, §3, §4, §5

SMILES | Epi concentrations required by 4,5,6,7-F4-Trp α149 mutant (dose-response unsuccessful) [1] | drop in hydrogen bonding strength ([2]; Tah/Thr ratio multiplied by generic 3.3-fold decrease seen with ACh) [fold] | energy corresponding to drop in hydrogen bonding strength ([2]; from corrected fold change) [kcal/mol] | EC50 [3] [µM] | Tah/Thr (fold increase in EC50 upon ester substitution) [2] | drop in hydrogen bonding strength [2] [fold] | energy corresponding to drop in hydrogen bonding strength [2] [kcal/mol] | EC50 [4] [µM]
Clc1ccc(C2CC3CCC2N3)cn1 (racemic) [Epi, epibatidine] | above 100 μM | ~12 | 1.5 | – | – | – | – | –
CN1CCCC1c1cccnc1 (centres unmarked) [Nic, nicotine] | – | – | – | 57 ± 2 | 1.6 | ~5 | 1.0 | 92 ± 4
